Laboratory results from PMC11211671, “Phage‐displayed heptapeptide sequence conjugation significantly improves the specific targeting ability of antimicrobial peptides against Staphylococcus aureus” (mLife, 2024).
Peptide text beside a SMILES is read from it.

Experiments:
red blood cells = format: cell-based, pig
Protocol: A series of parameters such as charge number, hydrophobicity, sequence length, and amphipathicity can affect the hemolytic activity of peptides against red blood cells. The minimal hemolytic concentration (MHC) refers to the minimum concentration that causes hemolysis of 10 % of red blood cells, and is often used to evaluate the hemolytic activity of the peptides. Except for SFK3, the percentage of hemolysis at 128 μM was below 5% for all peptides. Hemolysis of the erythrocytes occurred after incubation with Triton X‐100, with complete fragmentation of the erythrocytes and a bright red color of the reaction system (Figure 2B,C and Table S5).
The hemolytic activity of the peptide was calculated by measuring the level of […] released from mammalian red blood cell lysis induced by the peptide, [44]. Fresh porcine blood was collected from the jugular vein and washed with PBS three times, and red blood cells were collected. A red blood cell suspension of 10% (v/v) concentration was prepared in 10 mM PBS (pH = 7.4). After mixing with different concentrations of peptides in equal volume, they were incubated at 37°C for 2 h. Red blood cells treated with PBS and 0.1% Triton X‐100 were used as negative and positive controls, respectively. The assay was repeated three times. After the sample was centrifuged, the supernatant was transferred to a new 96‐well plate, and the optical density at 570 nm was measured using a microplate reader. Hemolysis was calculated as follows: Hemolytic activity(%)=ODtest sample−ODnegative control/ODpositive control−ODnegative control×100%

S. aureus ATCC 6538 = format: cell-based, Staphylococcus aureus
Protocol: (§1) MICs were determined to evaluate the antimicrobial activities of the peptides. The bacteria were inoculated into Mueller‐Hinton broth (MHB) medium in advance and placed in a shaker at 37°C until the logarithmic growth phase. The optical density value at OD600 of the bacterial suspension was adjusted to 0.4, and then diluted 1000 times with sterile MHB medium. Subsequently, the peptides with concentrations of 0.25–128 μM were prepared using bovine serum albumin (BSA) solution (0.2% BSA and 0.01% acetic acid) as the solvent on a 96‐well plate. Different concentrations of peptides and bacterial liquids were mixed in equal volumes. MHB medium containing bacteria was used as a positive control. MHB medium without bacteria was used as a negative control. Then, the mixture of peptides and bacteria was cultured in an incubator at 37°C for 18–24 h. The optical density of each well was measured at 492 nm using a microplate reader. The lowest drug concentration corresponding to a culture mixture with an optical density of less than 0.1 is the MIC of the peptide. The assay was repeated three times in duplicate.
The assay was performed to analyze the salt ion stability of SFK2 by measuring changes in MIC values in different physiological salt concentrations, [46].

P. aeruginosa 27853 = format: cell-based, Pseudomonas aeruginosa
Protocol: as §1

P. aeruginosa 15442 = format: cell-based, Pseudomonas aeruginosa
Protocol: as §1

E. coli K99 = format: cell-based, Escherichia coli; conditions: microbroth dilution, MHB, 37°C, 18–24 h, OD492 < 0.1; repeated three times in duplicate
Protocol: as §1

E. coli K88 = format: cell-based, Escherichia coli; conditions: microbroth dilution, MHB, 37°C, 18–24 h, OD492 < 0.1; repeated three times in duplicate
Protocol: as §1

E. coli 25922 = format: cell-based, Escherichia coli
Protocol: as §1

BALB/c mice [1] = test: Biosafety evaluation, intraperitoneal injection; format: in vivo, mouse; conditions: i.p. 15 and 30 mg/kg once daily, 7 days, n = 6, except 15 mg/kg group for urea
Protocol: Eighteen male BALB/c mice (weighing approximately 30 g) were randomly divided into three groups (control, low‐dose, and high‐dose groups). Mice in the low‐ and high‐dose groups were intraperitoneally injected with 15 and 30 mg/kg polypeptide solutions, respectively, once daily. Mice in the control group were injected intraperitoneally with 150 µl of saline once daily. The experiment lasted for 7 days, and the changes in the body weight of the mice were recorded. After the seventh intraperitoneal injection for another 12 h, the mice were anesthetized with ether and euthanized. Blood was collected from the orbital vein, and serum was analyzed by biochemical analysis after centrifugation. The livers and kidneys of mice were collected and weighed. Afterward, the organs were fixed in a 4% paraformaldehyde solution and stained with H&E for analysis.

S. aureus 6538 = format: cell-based, Staphylococcus aureus
Protocol: as §1

S. aureus 1882 = format: cell-based, Staphylococcus aureus
Protocol: as §1

S. epidermidis 12228 = format: cell-based, Staphylococcus epidermidis
Protocol: as §1

BALB/c mice [2] = test: Biosafety evaluation, tail vein injection; format: in vivo, mouse; conditions: tail vein 5 mg/kg once daily, 7 days, n = 6
Protocol: Twelve male BALB/c mice (weighing approximately 20 g) were randomly divided into two groups (control and peptide‐treated groups). Mice in the peptide‐treated group were injected intravenously into the tail vein with 5 mg/kg peptide solution once daily. In the control group, mice were injected once daily with saline via the tail vein. The experiment was continued for 7 days, and changes in body weight were recorded. Mice were anesthetized with ether and euthanized 12 h after the seventh tail vein injection. Blood was collected from the orbital vein and centrifuged, and the serum was analyzed biochemically. The livers and kidneys of mice were collected and weighed. The organs were then fixed in a 4% paraformaldehyde solution and analyzed by H&E staining.

CC[C@H](C)[C@H](NC(=O)[C@H](CCCNC(=N)N)NC(=O)[C@H](CO)NC(=O)[C@H](CC(C)C)NC(=O)[C@H](Cc1ccccc1)NC(=O)[C@H](Cc1ccccc1)NC(=O)[C@H](Cc1ccccc1)NC(=O)CNC(=O)CNC(=O)CNC(=O)[C@H](CO)NC(=O)[C@H](C)NC(=O)[C@H](CCCNC(=N)N)NC(=O)[C@@H](NC(=O)[C@H](Cc1c[nH]c2ccccc12)NC(=O)[C@H](Cc1ccc(O)cc1)NC(=O)[C@@H](N)CO)C(C)C)C(=O)N[C@@H](Cc1ccccc1)C(=O)N[C@@H](CCCCN)C(=O)N[C@@H](CCCCN)C(N)=O [SFK2] (H-SYWVRASGGGFFFLSRIFKK-NH2)
2 µM: MIC of SFK2 against S. aureus ATCC 6538, Control (S. aureus ATCC 6538) | MIC of SFK2 against S. aureus ATCC 6538, ZnCl2 (S. aureus ATCC 6538) | MIC S. aureus 6538 (S. aureus 6538) | MIC S. aureus 1882 (S. aureus 1882)
4 µM: MIC of SFK2 against S. aureus ATCC 6538, FeCl3 (S. aureus ATCC 6538) | MIC of SFK2 against S. aureus ATCC 6538, KCl (S. aureus ATCC 6538) | MIC of SFK2 against S. aureus ATCC 6538, MgCl2 (S. aureus ATCC 6538) | MIC of SFK2 against S. aureus ATCC 6538, NH4Cl (S. aureus ATCC 6538) | MIC of SFK2 against S. aureus ATCC 6538, NaCl (S. aureus ATCC 6538)
>64 µM: MIC P. aeruginosa 27853 (P. aeruginosa 27853) | MIC P. aeruginosa 15442 (P. aeruginosa 15442) | MIC E. coli K99 (E. coli K99) | MIC E. coli K88 (E. coli K88) | MIC E. coli 25922 (E. coli 25922) | MIC S. epidermidis 12228 (S. epidermidis 12228)
no significant differences: Relative organ indices and liver- and kidney function-related indices (Crea, urea, AST, ALT, TBIL, ALP) (BALB/c mice [1])
>128 μM: MHC (red blood cells)
negligible toxic side effects: Toxic side effects after tail vein injection (BALB/c mice [2])
